Assay results taken from ChEMBL document CHEMBL1157548, “Mitochondrial biotransformation of omega-(phenoxy)alkanoic acids, 3-(phenoxy)acrylic acids, and omega-(1-methyl-1H-imidazol-2-ylthio)alkanoic acids: a prodrug strategy for targeting cytoprotective antioxidants to mitochondria” (Bioorg Med Chem, 2010).
The source made the active and inactive calls. No cut-off for these calls is given here.

What was measured:
[1] = test system: Cardiac muscle cell; assay: Cytoprotective effect in rat cardiomyocytes under hypoxia-reoxygenation condition assessed as cell viability at 1 uM by trypan blue exclusion test; assay type: functional, cell-based
[2] = test system: Cardiac muscle cell; assay: Cytoprotective effect in rat cardiomyocytes under hypoxia-reoxygenation condition assessed as cell viability at 1 uM by trypan blue exclusion test in presence of etomoxir; assay type: functional, cell-based

Row | Structure (SMILES) | Activity [1] | Activity [2]
1 | Cc1cccc(C)c1O/C=C/C(=O)O | Active | inactive
2 | Cc1cccc(C)c1OCCC(=O)O | Active | inactive
3 | Cn1ccnc1SCCCCC(=O)O | Active | inactive
4 | Cn1ccnc1SCCC(=O)O | Active | inactive
5 | Cn1ccnc1S | inactive | –
